Laboratory results reported in US12103916B2, “Antifungal compounds” (University of Kentucky Research Foundation, priority 2016, dated 2024).
Where two headings read alike, the source gives them in different places. Marks after values point to notes of the source that are not given here.

Key:
[1] = test system: C. albicans ATCC MYA-2310(S); assay: MIC determination, strain E; format: cell-based, Candida albicans; details: Candida albicans
Method: (§1) The antifungal activity of our new azole compounds 1-9 and 24-41 was first evaluated against a panel of seven Candida albicans strains (A-G), three non-albicans Candida strains […], and three Aspergillus strains (K-M) in a concentration range of 0.03-31.2 μg/mL (Table 1). […] For all of our azole derivatives we report their MIC-0 values against C. albicans ATCC 10231 (strain A) and all Aspergillus strains (K-M), which correspond to complete growth inhibition of these fungi. […] The commercially available antifungals AmB, FLC, ITC, POS, and VOR were used as reference drugs for comparison. The MIC values presented for these five control drugs were either tested herein or correspond to our previously published data^5, 16 as indicated in Table 1.
(§2) Antifungal activity in the absence or presence of serum. The antifungal activity of the newly prepared alkylated piperazine/morpholine-azole hybrids 16-28, of intermediate 14 that we used to verify that only final compounds exert antifungal activity, as well as that of alkylated piperazine/morpholine derivatives 1-10 were first evaluated against a panel of seven C. albicans (ATCC 10231 (A), ATCC 64124(R) (B), ATCC MYA-2876(S) (C), ATCC 90819(R) (D), ATCC MYA-2310(S) (E), ATCC MYA-1237(R) (F), and ATCC MYA-1003(R) (G)), three non-albicans Candida (C. glabrata ATCC 2001 (H), C. krusei ATCC 6258 (I), and C. parapsilosis ATCC 22019 (J)), and three Aspergillus (A. flavus ATCC MYA-3631 (K), A. nidulans ATCC 38163 (L), and A. terreus ATCC MYA-3633 (M)) strains using a concentration range of 0.03-31.3 μg/mL (Table 2).
(§3) Commercially available antifungal agents such as AmB, CAS, FLC, and VOR were used as positive controls for comparison. […] It is important to note that all comparisons to follow will be done by using the MIC values reported in μg/mL as the data were collected that way. However, we also present in parentheses in Table 2 the corresponding values in micromolar.
(§4) We used the commercially available antifungal agents such as AmB, caspofungin (CAS), FLC, and VOR as positive controls for comparison. For derivatives 5-16 as well as the reference drugs AmB and CAS, we reported MIC-0 values, which correspond to no visible growth. […] In this manuscript, we performed all activity comparisons by using the MIC values reported in μg/mL (Note: the corresponding MIC values are also provided in μM into parentheses in Tables 1, 2, S1, and S2).

[2] = test system: Candida glabrata ATCC 2001; assay: MIC determination, strain H; format: cell-based; details: Nakaseomyces glabratus, ATCC2001
Method: as §1, §2, §3, §4

[3] = test system: Candida parapsilosis ATCC 22019; assay: MIC determination, strain J; format: cell-based; details: Lodderomyces parapsilosis
Method: as §1, §2, §3, §4

[4] = test system: C. glabrata ATCC 2001 (strain H); assay: Time-kill assay, strain H; format: cell-based, Candida glabrata; details: Ex.2 series, compound at 4×MIC, VOR control
Method: FIG. 9A-9D include Representative time-kill curves for compound 20 against FIG. 9A. C. albicans ATCC 10231 (strain A) and FIG. 9B. C. parapsilosis ATCC 22019 (strain J), as well as for compound 22 against FIG. 9C. C. glabrata ATCC 2001 (strain H), and FIG. 9D. strain J. Fungal strains were treated with no drug (black circles), 1×MIC (white circles), 4×MIC (inverted black triangles), or 8×MIC (white triangles) of compounds 20 or 22, or with 1×MIC (black squares) or 4×MIC (white squares) of VOR. The detection limit of this assay was 100 CFU/mL (represented by the red line in panels A and C).
Time-kill assays. To determine if the antifungal activity of the alkylated piperazine-azole hybrids is fungistatic or fungicidal, we performed time-kill assays over 24-hour periods by using compounds 20 and 22, each against two fungal strains (strains A and J for 20; H and J for 22) (FIG. 9).

[5] = test system: ergosterol biosynthetic pathway (sterol 14α-demethylase) in C. albicans ATCC 10231 (strain A); assay: Sterol composition by GC-MS, strain A; format: cell-based, Candida albicans
Excerpt: FIG. 7A-FIG. 7H includes FIG. 7A. A simplified ergosterol biosynthetic pathway and products resulting from inhibition of ERG11. FIG. 7B-G. include GC-MS chromatograms of the sterols extracted from untreated and antifungals treated C. albicans strains. […] The peaks are for lanosterol (1), ergosterol (2), eburicol (3), 14-alpha-methyl ergosta 8,24(28)-dien-3-beta,6-alpha-diol (4), and unknown sterols (5 and 6). FIG. 7H is a table summarizing the percentage of each sterol from panels B-G.
FIG. 13A. A simplified ergosterol biosynthetic pathway and products resulting from inhibition of ERG11. FIG. 13B-FIG. 13F. GC-MS chromatograms of the sterols extracted from untreated and antifungal-treated C. albicans ATCC 10231 (strain A). […] The peaks in these chromatograms are for lanosterol (1), ergosterol (2), eburicol (3), 14α-methyl ergosta-8,24(28)-dien-3β,6α-diol (4), and three unknown sterols (5-7). FIG. 13G includes a table summarizing the percentage of each sterol from panels B-F.
No drug controls were also performed (FIGS. 7D and G).
Determination of sterol composition in c. albicans in the presence and absence of drugs. […] By using gas chromatography-mass spectrometry (GC-MS), we investigated the potential of the synthetic compounds to exert their antifungal activity by inhibiting the sterol 14α-demethylase enzyme of the ergosterol biosynthetic pathway (FIG. 13). […] A no drug control was also performed (FIG. 13A).
Since out of our compounds displaying antifungal activity only compound 8 caused membrane disruption of C. albicans ATCC 10231 (strain A) in the membrane permeabilization assay (section 2.6), we decided to explore by using gas chromatography-mass spectrometry (GC-MS) the effect of compounds 8 and 9 on sterol composition during ergosterol biosynthesis (the mechanism of action of other conventional azoles). […] We also used VOR at 0.12 μg/mL and no drug control for comparison.

[6] = test system: C. albicans ATCC MYA-2310(S); details: Table 1; strain E; control azoles; previously reported (refs 5, 16); cited from earlier work
[7] = read-out: MIC (MIC-2), in parentheses
[8] = Ex.2 series, VOR 0.12, 20 0.48, 26 0.975 μg/mL
[9] = Ex.3 series, VOR 0.12, 8 and 9 at sub-MIC […] and 0.975 μg/mL

## C[C@@H](c1ncncc1F)[C@](O)(Cn1cncn1)c1ccc(F)cc1F [VOR, voriconazole]
[1]; read-out: MIC (MIC-2)
  MIC: 0.975 µg/mL
[1]; [7]
  MIC: 2.8 µM
[2]; read-out: MIC (MIC-2)
  MIC: 0.06 µg/mL
[2]; [7]
  MIC: 0.17 µM
[3]; ATCC22019, read-out: MIC, Candida parapsilosis ATCC 22019 (J) (+10% FBS), Table 3, Ex.2 compounds, +10% FBS
  MIC: 0.015 µg/mL
[3]; ATCC22019, Table 3, Ex.2 compounds, no FBS, read-out: MIC, Candida parapsilosis ATCC 22019 (J) (no FBS)
  MIC: 0.015 µg/mL
[3]; ATCC22019, read-out: MIC (MIC-2)
  MIC: < 0.03 µg/mL
[3]; ATCC22019, read-out: MIC (MIC-2), in parentheses
  MIC: < 0.06 µM
[4]
  effect in time-kill assay: fungistatic
[5]; Ex.2 series, FLC 1.95, VOR 0.12, 20 0.48, 26 0.975 μg/mL
  ergosterol (2), percentage of sterols: 64.93%
[5]; [8]
  eburicol (3), percentage of sterols: 2.14%
  lanosterol (1), percentage of sterols: 18.49%
[5]; [9]
  eburicol (3), percentage of sterols: 1.73%
  ergosterol (2), percentage of sterols: 50.80%
  lanosterol (1), percentage of sterols: 15.21%
[6]
  MIC (MIC-2): 0.975^c μg/mL
